For 33 compounds, Ki results are on record in patent US9663513B2, “Pyrimidine PDE10 inhibitors” (Merck Sharp & Dohme Corp., priority 2012, dated 2017).

human PDE10A2, sequence (Q9Y233 267-1055): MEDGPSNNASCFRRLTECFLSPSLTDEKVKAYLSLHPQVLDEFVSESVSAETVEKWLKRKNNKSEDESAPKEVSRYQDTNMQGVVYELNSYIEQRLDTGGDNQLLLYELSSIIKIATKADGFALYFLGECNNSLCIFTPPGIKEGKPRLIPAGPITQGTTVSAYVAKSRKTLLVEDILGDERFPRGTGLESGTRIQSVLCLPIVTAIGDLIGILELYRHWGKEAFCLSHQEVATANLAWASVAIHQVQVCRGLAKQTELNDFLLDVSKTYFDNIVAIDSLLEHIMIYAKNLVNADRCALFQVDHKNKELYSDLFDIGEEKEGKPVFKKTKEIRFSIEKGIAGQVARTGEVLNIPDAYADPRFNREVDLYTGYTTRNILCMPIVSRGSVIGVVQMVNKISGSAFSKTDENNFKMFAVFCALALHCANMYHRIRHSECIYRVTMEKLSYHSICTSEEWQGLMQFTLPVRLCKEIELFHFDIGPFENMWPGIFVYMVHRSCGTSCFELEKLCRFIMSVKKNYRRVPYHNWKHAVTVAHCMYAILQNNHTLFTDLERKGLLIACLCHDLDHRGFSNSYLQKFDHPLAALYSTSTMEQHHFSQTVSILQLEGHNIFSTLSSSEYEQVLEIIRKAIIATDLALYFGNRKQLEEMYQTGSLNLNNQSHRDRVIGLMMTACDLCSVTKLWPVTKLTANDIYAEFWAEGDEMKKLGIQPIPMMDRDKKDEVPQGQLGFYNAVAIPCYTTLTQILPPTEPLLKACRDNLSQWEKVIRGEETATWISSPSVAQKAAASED

This assay concerns the target human PDE10A2 (Homo sapiens (Human), UniProt Q9Y233). Kind of assay: PDE10 fluorescence polarization (IMAP FP) inhibition assay. The class given is biochemical. The settings on record: human PDE10A2 from transfected AD293 cells; FAM-labeled cAMP 50 nM; apparent inhibition constant; read-out: PDE10A Ki. An outline of the steps: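 Cytoplasmic lysate of AD293 cells transiently expressing human PDE10A2 (enzyme level giving 20% conversion) incubated with 50 nM FAM-cAMP in pH 7.2 Tris/MgCl2 buffer, 30 min at room temperature. IMAP binding solution added, FP read after ≥1 h; 10-point 3-fold compound titrations fitted to a four-parameter equation.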
On the technique in general: In fluorescence polarisation assays a small probe gives low polarisation when free and higher when bound to something large.
On to `CCc1ccc([C@H]2C[C@@H]2COc2nc(C)ncc2-c2cn(C)nc2C(C)O)nc1` (stereo partly drawn) [Example 163, 1-(4-(4-(((1S,2S)-2-(5-ethylpyridin-2-yl)cyclopropyl)methoxy)-2-methylpyrimidin-5-yl)-1-methyl-1H-pyrazol-3-yl)ethanol], for which the Ki was 0.24 nM.

As for `Cc1ccc([C@H]2C[C@@H]2COc2nc(C)ncc2-c2cn(C)nc2C(O)C(F)F)nc1` (stereo partly drawn) [Example 170, 2,2-difluoro-1-(1-methyl-4-(2-methyl-4-(((1S,2S)-2-(5-methylpyridin-2-yl)cyclopropyl)methoxy)pyrimidin-5-yl)-1H-pyrazol-3-yl)ethanol], the Ki was determined as 1.48 nM.

Take `COc1ccc([C@H]2C[C@@H]2COc2nc(C)ncc2-c2ccc(C#N)cc2)nc1` [Example 171, 4-(4-(((1S,2S)-2-(5-methoxypyridin-2-yl)cyclopropyl)methoxy)-2-methylpyrimidin-5-yl)benzonitrile]: the Ki was 1.19 nM.

`COc1ccc([C@H]2C[C@@H]2COc2nc(C)ncc2-c2ccc(C(=O)O)cc2)nc1` [Example 172, 4-(4-(((1S,2S)-2-(5-methoxypyridin-2-yl)cyclopropyl)methoxy)-2-methylpyrimidin-5-yl)benzoic acid]: the Ki stood at 0.29 nM.

Take `Cc1cccc([C@H]2C[C@@H]2COc2nc(C)ncc2-c2ccc(C(C)(C)O)nc2)n1` [Example 176, 2-(5-(2-methyl-4-(((1S,2S)-2-(6-methylpyridin-2-yl)cyclopropyl)methoxy)pyrimidin-5-yl)pyridin-2-yl)propan-2-ol]: the Ki came to 14.8 nM.

`Cc1ncc(-c2ccc(C(C)(C)O)nc2)c(OC[C@H]2C[C@@H]2c2ccc(C#N)cn2)n1` [Example 182, 6-((1S,2S)-2-((5-(6-(2-hydroxypropan-2-yl)pyridin-3-yl)-2-methylpyrimidin-4-yloxy)methyl)cyclopropyl)nicotinonitrile]: the Ki was 17.8 nM.

On to `Cc1ncc(-c2ccc(C(C)(C)O)nc2)c(OC[C@H]2C[C@@H]2c2ccc(C(F)(F)F)cn2)n1` [Example 183, 2-(5-(2-methyl-4-(((1S,2S)-2-(5-(trifluoromethyl)pyridin-2-yl)cyclopropyl)methoxy)pyrimidin-5-yl)pyridin-2-yl)propan-2-ol], for which the Ki is 13.5 nM.

Turning to `Cc1ccc([C@H]2C[C@@H]2COc2nc(C)ncc2C2CCC3(CC2)OCCO3)nc1` [Example 184, 2-methyl-4-(((1S,2S)-2-(5-methylpyridin-2-yl)cyclopropyl)methoxy)-5-(1,4-dioxaspiro[4.5]decan-8-yl)pyrimidine], the Ki was determined as 2.81 nM.

For `Cc1ccc([C@H]2C[C@@H]2COc2nc(C)ncc2C2CCC(=O)CC2)nc1` [Example 185, 4-(2-methyl-4-(((1S,2S)-2-(5-methylpyridin-2-yl)cyclopropyl)methoxy)pyrimidin-5-yl)cyclohexanone], the Ki is 3.73 nM.

On to `Cc1cccc([C@H]2C[C@@H]2COc2nc(C)ncc2C2CCC3(CC2)OCCO3)n1` [Example 186, 2-methyl-4-(((1S,2S)-2-(6-methylpyridin-2-yl)cyclopropyl)methoxy)-5-(1,4-dioxaspiro[4.5]decan-8-yl)pyrimidine], for which the Ki was 6.67 nM.

With `Cc1cccc([C@H]2C[C@@H]2COc2nc(C)ncc2C2CCC(=O)CC2)n1` [Example 187, 4-(2-methyl-4-(((1S,2S)-2-(6-methylpyridin-2-yl)cyclopropyl)methoxy)pyrimidin-5-yl)cyclohexanone], the Ki was 18.6 nM.

Turning to `COc1ccc([C@H]2C[C@@H]2COc2nc(C)ncc2C2CCC3(CC2)OCCO3)nc1` [Example 188, 4-(((1S,2S)-2-(5-methoxypyridin-2-yl)cyclopropyl)methoxy)-2-methyl-5-(1,4-dioxaspiro[4.5]decan-8-yl)pyrimidine], the Ki came to 2.84 nM.

For the compound `COc1ccc([C@H]2C[C@@H]2COc2nc(C)ncc2C2CCC(=O)CC2)nc1` [Example 189, 4-(4-(((1S,2S)-2-(5-methoxypyridin-2-yl)cyclopropyl)methoxy)-2-methylpyrimidin-5-yl)cyclohexanone], the Ki is 3.75 nM.

Regarding `Cc1ncc(C2CCC3(CC2)OCCO3)c(OC[C@H]2C[C@@H]2c2ccc3ccccc3n2)n1` [Example 190, 2-((1S,2S)-2-((2-methyl-5-(1,4-dioxaspiro[4.5]decan-8-yl)pyrimidin-4-yloxy)methyl)cyclopropyl)quinoline], the Ki was determined as 0.06 nM.

Take `Cc1ncc(C2CCC(=O)CC2)c(OC[C@H]2C[C@@H]2c2ccc3ccccc3n2)n1` [Example 191, 4-(2-methyl-4-(((1S,2S)-2-(quinolin-2-yl)cyclopropyl)methoxy)pyrimidin-5-yl)cyclohexanone]: the Ki was determined as 0.06 nM.

For the compound `Cc1ncc([C@H]2CC[C@H](O)CC2)c(OC[C@H]2C[C@H]2c2ccc3ccccc3n2)n1` [Example 192, Trans-4-(2-methyl-4-(((1S,2R)-2-(quinolin-2-yl)cyclopropyl)methoxy)pyrimidin-5-yl)cyclohexanol], the Ki was 0.01 nM.

As to `Cc1ncc([C@H]2CC[C@@H](O)CC2)c(OC[C@H]2C[C@H]2c2ccc3ccccc3n2)n1` [Example 193, (1R,4s)-4-(2-methyl-4-(((1S,2R)-2-(quinolin-2-yl)cyclopropyl)methoxy)pyrimidin-5-yl)cyclohexanol], the Ki is 0.07 nM.

For `CCc1ccc([C@@H]2C[C@@H]2COc2nc(C)ncc2C2CCC3(CC2)OCCO3)nc1` [Example 194, 4-(((1S,2R)-2-(5-ethylpyridin-2-yl)cyclopropyl)methoxy)-2-methyl-5-(1,4-dioxaspiro[4.5]decan-8-yl)pyrimidine], the Ki was found to be 2.98 nM.

For the compound `CCc1ccc([C@@H]2C[C@@H]2COc2nc(C)ncc2C2CCC(=O)CC2)nc1` [Example 195, 4-(4-(((1S,2R)-2-(5-ethylpyridin-2-yl)cyclopropyl)methoxy)-2-methylpyrimidin-5-yl)cyclohexanone], the Ki turned out to be 3.48 nM.

Consider `CCc1ccc([C@@H]2C[C@@H]2COc2nc(C)ncc2[C@H]2CC[C@H](O)CC2)nc1` [Example 196, Trans-4-(4-(((1S,2R)-2-(5-ethylpyridin-2-yl)cyclopropyl)methoxy)-2-methylpyrimidin-5-yl)cyclohexanol], for which the Ki was 0.5 nM.

Turning to `CCc1ccc([C@@H]2C[C@@H]2COc2nc(C)ncc2[C@H]2CC[C@@H](O)CC2)nc1` [Example 197, (1R,4s)-4-(4-(((1S,2R)-2-(5-ethylpyridin-2-yl)cyclopropyl)methoxy)-2-methylpyrimidin-5-yl)cyclohexanol], the Ki was 1.73 nM.

`Cc1ncc(C2CCC3(CC2)OCCO3)c(OC[C@H]2C[C@H]2c2ccccn2)n1` [Example 198, 2-methyl-4-(((1S,2R)-2-(pyridin-2-yl)cyclopropyl)methoxy)-5-(1,4-dioxaspiro[4.5]decan-8-yl)pyrimidine]: the Ki was 27.6 nM.

Consider `Cc1ncc([C@H]2CC[C@H](O)CC2)c(OC[C@H]2C[C@@H]2c2ccccn2)n1` [Example 199, Trans-4-(2-methyl-4-(((1S,2S)-2-(pyridin-2-yl)cyclopropyl)methoxy)pyrimidin-5-yl)cyclohexanol], for which the Ki came to 4.79 nM.

As to `COc1cccc([C@H]2C[C@@H]2COc2nc(C)ncc2C2CCC3(CC2)OCCO3)n1` [Example 200, 4-(((1S,2S)-2-(6-methoxypyridin-2-yl)cyclopropyl)methoxy)-2-methyl-5-(1,4-dioxaspiro[4.5]decan-8-yl)pyrimidine], the Ki amounted to 1.61 nM.

For `Cc1ccnc([C@H]2C[C@@H]2COc2nc(C)ncc2C2CCC3(CC2)OCCO3)c1` [Example 201, 2-methyl-4-(((1S,2S)-2-(4-methylpyridin-2-yl)cyclopropyl)methoxy)-5-(1,4-dioxaspiro[4.5]decan-8-yl)pyrimidine], the Ki is 17.1 nM.

For `COc1cccc([C@H]2C[C@@H]2COc2nc(C)ncc2C2CCC(=O)CC2)n1` [Example 202, 4-(4-(((1S,2S)-2-(6-methoxypyridin-2-yl)cyclopropyl)methoxy)-2-methylpyrimidin-5-yl)cyclohexanone], the Ki is 2.96 nM.

With `Cc1ccnc([C@H]2C[C@@H]2COc2nc(C)ncc2C2CCC(=O)CC2)c1` [Example 203, 4-(2-methyl-4-(((1S,2S)-2-(4-methylpyridin-2-yl)cyclopropyl)methoxy)pyrimidin-5-yl)cyclohexanone], the Ki was determined as 30.8 nM.

Regarding `Cc1ncc(C2CCC3(CC2)OCCO3)c(OC[C@@H](C)Cc2ccc3ccccc3n2)n1` [Example 204, 2-((2S)-2-methyl-3-(2-methyl-5-(1,4-dioxaspiro[4.5]decan-8-yl)pyrimidin-4 yloxy)propyl)quinoline], the Ki came to 0.73 nM.

Take `Cc1ncc([C@@H]2CCC3(C[C@H]2O)OCCO3)c(OC[C@H]2C[C@@H]2c2ccc3ccccc3n2)n1` [Example 205, (7R,8S)-8-(2-methyl-4-(((1S,2S)-2-(quinolin-2-yl)cyclopropyl)methoxy)pyrimidin-5-yl)-1,4-dioxaspiro[4.5]decan-7-ol]: the Ki turned out to be 7.08 nM.

With `Cc1ncc(C2(O)CCC3(CC2)OCCO3)c(OC[C@H]2C[C@@H]2c2ccc3ccccc3n2)n1` [Example 206, 8-(2-methyl-4-(((1S,2S)-2-(quinolin-2-yl)cyclopropyl)methoxy)pyrimidin-5-yl)-1,4-dioxaspiro[4.5]decan-8-ol], the Ki is 6.28 nM.

`COc1ccc([C@H]2C[C@@H]2COc2nc(C)ncc2C2CCCC(=O)C2)nc1` (stereo partly drawn) [Example 207, 3-(4-(((1S,2S)-2-(5-Methoxypyridin-2-yl)cyclopropyl)methoxy)-2-methylpyrimidin-5-yl)cyclohexanone]: the Ki came to 0.48 nM.

Turning to `Cc1ccc([C@H]2C[C@@H]2COc2nc(C)ncc2C2CCCCC2)nc1` [Example 208, 5-Cyclohexyl-2-methyl-4-(((1S,2S)-2-(5-methylpyridin-2-yl)cyclopropyl)methoxy)pyrimidine], the Ki came out at 2.28 nM.

In the case of `Cc1ccc([C@H]2C[C@@H]2COc2nc(C)ncc2C2CCC(F)(F)CC2)nc1` [Example 209, 5-(4,4-Difluorocyclohexyl)-2-methyl-4-(((1S,2S)-2-(5-methylpyridin-2-yl)cyclopropyl)methoxy)pyrimidine], the Ki turned out to be 12.1 nM.
